Results from patent US9120249B2, “Implant device release agents and methods of using same” (ENDO PHARMACEUTICALS SOLUTIONS INC., priority 2007, dated 2015).

Experiments:
[1] = cited from earlier work; for CMC: critical micelle concentration; for HLB: hydrophilic-lipophilic balance
[2] = Tensile strength of gamma irradiated cartridges, initially and after storage at 37° C.; assay type: physicochemical; settings: initially after irradiation and after 3 and 8 months storage at 37° C.
Experimental: Approximately 15-20 cartridges of each formulation were prepared and gamma irradiated at 10-11 kGy. The tensile strength of five cartridges from each formulation was measured initially. The remaining cartridges were stored at 37° C. and tested for tensile strength again at 3 and 8 months.

Triton X-100
CMC [1]: 0.2 to 0.9 mM
HLB [1]: 13.5

CCCCCCCC/C=C\CCCCCCCC(=O)OCCOCC(OCCO)C1OCC(OCCO)C1OCCO (stereo not shown) [Tween 80]
CMC [1]: 0.012 mM
HLB [1]: 15

Sucrose monolaurate
CMC [1]: 0.2 mM
HLB [1]: ~8

O=C1O[C@H]([C@@H](O)CO)C(O)=C1O [Ascorbic acid, ascorbic acid]
tensile strength of cartridges, in words [2]: seems to be effective as well
